From US20090209589A1, “N-[(PYRIDIN-2-YL) METHOXY] HETROCYCLYL CARBOXAMIDE DERIVATIVES AND RELATED COMPOUNDS AS FUNGICIDES” (Bayer Cropscience SA, priority 2006, published 2009)

Experiments:
Alternaria alternata = assay: Cell test on Alternaria alternata; format: cell-based; conditions: under similar conditions (2 ppm, OD at 620 nm after 5 days)
Procedure: The growth of Alternaria alternata is performed on PDA medium at 20° C. under black light during 14 days. The PDA medium is prepared by mixing 39 grams of PDA (Merck) in 1 liter of demineralized water.
The medium is sterilized by autoclave 15 minutes at 121° C. After 14 days of growth, the spores of Alternaria alternata are recovered in sterilized water and the concentration of spores adjusted at 10^6 spores per ml.
The compounds is solubilized in DMSO and added to sterile liquid glucose/mycopeptone medium (14.6 g/l of D-glucose, 7.1 g/l of mycological peptone (Oxoid) and 1.4 g/l of yeast extract (Merck)) at a concentration of 2 ppm. The medium is inoculated with the spore suspension at a concentration of 10^5 spores per ml.
The efficacy of the compounds is assessed by OD measurement at 620 nm after 5 days at 20° C. in comparison with a control.

Pyrenophora teres = assay: In vivo test on Pyrenophora teres (barley net blotch); conditions: barley plants, preventive spray, dose of 330 ppm, grading 12 days after contamination
Procedure: The active ingredients tested are prepared by homogenization in a mixture of acetone/tween/DMSO, then diluted with water to obtain the desired active material concentration.
Barley plants (Express variety), sown on a 50/50 peat soil-pozzolana substrate in starter cups and grown at 12° C., are treated at the 1-leaf stage (10 cm tall) by spraying with the active ingredient prepared as described above. Plants, used as controls, are treated with the mixture of acetone/tween/DMSO/water not containing the active material.
After 24 hours, the plants are contaminated by spraying them with an aqueous suspension of Pyrenophora teres spores (12,000 spores per ml). The spores are collected from a 12-day-old culture. The contaminated barley plants are incubated for 24 hours at about 20° C. and at 100% relative humidity, and then for 12 days at 80% relative humidity.
Grading is carried out 12 days after the contamination, in comparison with the control plants.

O=C(NOCc1ncc(C(F)(F)F)cc1Cl)c1c(Cl)cccc1Cl [2,6-dichloro-N-{[3-chloro-5-(trifluoromethyl)pyridin-2-yl]methoxy}benzamide]
activity (Alternaria alternata): did not show any activity

O=C(NCCc1ccccn1)c1nccc(-n2ccnc2)c1O [3-hydroxy-4-(1H-imidazol-1-yl)-N-(2-pyridin-2-ylethyl)pyridine-2-carboxamide]
activity (Alternaria alternata): did not show any activity

Cc1ccsc1C(=O)NOCc1ncc(C(F)(F)F)cc1Cl [Compound C-1, N-{[3-chloro-5-(trifluoromethyl)pyridin-2-yl]methoxy}-3-methylthiophene-2-carboxamide]
protection (Pyrenophora teres): at least 70%

O=C(NOCc1ncc(C(F)(F)F)cc1Cl)c1c(F)cccc1F [N-{[3-chloro-5-(trifluoromethyl)pyridin-2-yl]methoxy}-2,6-difluorobenzamide]
activity (Alternaria alternata): did not show any activity
